According to patent publication US7501421B2, “Benzoxazole and benzothiazole derivatives as 5-hydroxytryptamine-6 ligands” (Wyeth, priority 2006, dated 2009):
Structures can show the parent of a compound that is named as a salt.

Biological target: human cloned 5-HT6 receptors (Homo sapiens, UniProt P50406)
Assay: Evaluation of 5-HT6 binding affinity ([3H]-LSD radioligand binding)

Sequence of human cloned 5-HT6 receptors (P50406 whole entry): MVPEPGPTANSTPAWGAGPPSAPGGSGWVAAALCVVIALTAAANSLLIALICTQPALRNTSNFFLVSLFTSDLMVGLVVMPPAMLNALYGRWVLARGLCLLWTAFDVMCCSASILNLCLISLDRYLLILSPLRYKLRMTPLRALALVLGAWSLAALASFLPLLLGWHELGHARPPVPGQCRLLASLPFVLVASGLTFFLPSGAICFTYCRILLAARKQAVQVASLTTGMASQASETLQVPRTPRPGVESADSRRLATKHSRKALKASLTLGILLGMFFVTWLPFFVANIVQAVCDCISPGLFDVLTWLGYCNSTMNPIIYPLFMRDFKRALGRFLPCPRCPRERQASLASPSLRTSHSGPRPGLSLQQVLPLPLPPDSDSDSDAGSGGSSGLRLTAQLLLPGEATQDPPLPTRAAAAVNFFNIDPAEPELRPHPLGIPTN

Which Ki does the source give for `O=S(=O)(c1ccccc1)c1cccc2oc(N3CCNCC3)nc12` [Example 13] here?
The Ki was 67 nM.

For `CN1CCN(c2nc3c(S(=O)(=O)c4cccc5ccccc45)cccc3o2)CC1` [Example 22, 2-(4-Methylpiperazin-1-yl)-4-(1-naphthylsulfonyl)benzoxazole Dihydrochloride], which Ki is on record?
The Ki was 10 nM.

`O=S(=O)(c1cccc2ccccc12)c1cccc2oc(N3CCN(C4CCCC4)CC3)nc12` [Example 30] was tested. Which Ki did it give?
The Ki was 78 nM.

How did the Ki turn out when `O=S(=O)(c1cccc2ccccc12)c1cccc2oc(N3CCN(C4CCCCC4)CC3)nc12` [Example 31] was run?
Its Ki is 91 nM.

For `O=S(=O)(c1cccc2ccccc12)c1cccc2nc(N3CCNCC3)oc12` [Example 34, 7-(1-naphthylsulfonyl)-2-piperazin-1-ylbenzoxazole Dihydrochloride], which Ki is on record?
The Ki was 7 nM.

How did the Ki turn out when `O=S(=O)(c1ccc2nc(N3CCNCC3)sc2c1)c1cccc2ccccc12` [Example 41, 6-(1-Naphthylsulfonyl)-2-piperazin-1-ylbenzothiazole Dihydrochloride] was run?
The Ki was 500 nM.
